This note sets out measurements from ChEMBL document CHEMBL4411274, “Recent advances of tetrazole derivatives as potential anti-tubercular and anti-malarial agents” (Eur J Med Chem, 2019).

Converted amounts (≈) assume the structure as drawn.

Assay [1] concerns the target T1, Cysteine protease falcipain-3 (Plasmodium falciparum, UniProt Q9NAW4).
T1 sequence (Q9NAW4 whole entry): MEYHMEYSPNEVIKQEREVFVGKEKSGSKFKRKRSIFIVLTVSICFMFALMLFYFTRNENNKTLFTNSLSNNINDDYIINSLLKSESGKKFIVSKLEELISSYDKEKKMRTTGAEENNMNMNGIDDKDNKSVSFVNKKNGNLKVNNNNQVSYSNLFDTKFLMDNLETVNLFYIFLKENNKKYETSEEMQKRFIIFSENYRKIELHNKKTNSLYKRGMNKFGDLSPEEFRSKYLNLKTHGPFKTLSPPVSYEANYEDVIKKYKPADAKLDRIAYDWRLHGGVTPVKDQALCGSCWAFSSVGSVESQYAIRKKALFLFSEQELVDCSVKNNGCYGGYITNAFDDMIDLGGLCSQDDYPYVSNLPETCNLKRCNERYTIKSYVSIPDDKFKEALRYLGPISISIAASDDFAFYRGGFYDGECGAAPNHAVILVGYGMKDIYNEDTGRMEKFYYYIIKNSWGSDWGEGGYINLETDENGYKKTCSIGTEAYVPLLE
As to the kind of experiment: Inhibition of Plasmodium falciparum falcipain-3 preincubated for 30 mins followed by Z-Leu-Arg-AMC substrate addition and measured up to 15 mins by spectrofluorometric analysis.

Another assay has as its target T2, Falcipain 2 (Plasmodium falciparum, UniProt Q9N6S8).
T2 sequence (Q9N6S8 whole entry): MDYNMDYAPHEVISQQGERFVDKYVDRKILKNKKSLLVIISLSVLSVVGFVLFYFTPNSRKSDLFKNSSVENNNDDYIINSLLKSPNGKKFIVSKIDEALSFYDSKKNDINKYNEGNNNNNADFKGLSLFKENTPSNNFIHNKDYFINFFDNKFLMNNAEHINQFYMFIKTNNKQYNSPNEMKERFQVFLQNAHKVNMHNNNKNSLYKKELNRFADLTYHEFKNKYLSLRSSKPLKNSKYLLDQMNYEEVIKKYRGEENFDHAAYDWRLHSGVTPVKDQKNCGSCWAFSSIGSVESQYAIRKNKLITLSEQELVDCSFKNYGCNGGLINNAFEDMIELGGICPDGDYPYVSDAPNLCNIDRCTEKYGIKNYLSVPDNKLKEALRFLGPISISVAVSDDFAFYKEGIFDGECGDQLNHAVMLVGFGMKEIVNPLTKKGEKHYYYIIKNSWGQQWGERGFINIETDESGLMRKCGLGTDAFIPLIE
As to the kind of experiment: Inhibition of Plasmodium falciparum falcipain-2 preincubated for 30 mins followed by Z-Leu-Arg-AMC substrate addition and measured up to 15 mins by spectrofluorometric analysis.

Another assay concerns Plasmodium falciparum. As to the kind of experiment: Antimalarial activity against Plasmodium falciparum K2 infected in human erythrocytes assessed as parasitemia after 48 hrs by YOYO-1 staining-based flow cytometric analysis. The class given is functional, organism-based. The settings on record: K2, 48 h.
The next assay deals with Mycobacterium avium. As to the kind of experiment: Antibacterial activity against Mycobacterium avium CNCTC My 330/88. It is filed as functional.
In assay [2] the test system is Mycobacterium kansasii. Briefly: Antibacterial activity against Mycobacterium kansasii isolate 6509/96. The class given is functional.
Assay [3] concerns Mycobacterium tuberculosis. Briefly: Antibacterial activity against Mycobacterium tuberculosis CNCTC My 331/88. The class given is functional.
In assay [4] the test system is Mycobacterium kansasii. As to the kind of experiment: Antibacterial activity against Mycobacterium kansasii CNCTC My 235/80. It is filed as functional.
The test system of another assay is CHO-K1. Briefly: Cytotoxicity against CHOK1 cells after 24 hrs by MTT assay. The class given is cell-based. The settings on record: Cricetulus griseus, CHO-K1, 24 h.
In assay [5] the test system is Mycobacterium tuberculosis. Briefly: Antibacterial activity against Mycobacterium tuberculosis H37Rv by MABA. The class given is functional.
Assay [6] concerns Mycobacterium tuberculosis. As to the kind of experiment: Antibacterial activity against Mycobacterium tuberculosis H37Rv by resazurin dye-based assay. The class given is functional.

Take `O=C(Cn1nnc(-c2ccccc2)n1)NNC(=O)c1ccco1`: the IC50 in [1] was 6.67 to 43.9 µM; on Falcipain 2, 6.67 to 43.9 µM; in the assay on Plasmodium falciparum, above 10 µM.
As to `Cc1cc(NC(=O)Cn2nnc(-c3ccccc3NC(=O)c3ccccc3F)n2)no1`, the figures for the IC50 (in assay [1]; against Falcipain 2; in the assay on Plasmodium falciparum) were 6.67 to 43.9 µM, 6.67 to 43.9 µM and above 10 µM, respectively.
Turning to `Sc1nnnn1-c1ccccc1`, the minimum inhibitory concentration (MIC) (with Mycobacterium avium; in the assay on Mycobacterium kansasii [2]; in assay [3]; with Mycobacterium kansasii [4]) was 250 to 500 µg/mL (≈ 1400 to 2810 µM) throughout.
For the compound `Sc1nnnn1-c1ccc(Cl)cc1`, the MIC (against Mycobacterium avium; against Mycobacterium kansasii [2]; in [3]; in the assay with Mycobacterium kansasii [4]) was 250 to 500 µg/mL (≈ 1180 to 2350 µM) each time.
For the compound `Sc1nnnn1-c1ccc(Cl)c(Cl)c1`, the MIC (against Mycobacterium avium; in the assay on Mycobacterium kansasii [2]; in assay [3]; in the assay on Mycobacterium kansasii [4]) was 250 to 500 µg/mL (≈ 1010 to 2020 µM) throughout.
In the case of `c1ccc(CSc2nnnn2-c2ccccc2)cc1`, the MIC (against Mycobacterium avium; with Mycobacterium kansasii [2]; in [3]; with Mycobacterium kansasii [4]) was 8 to 250 µg/mL (≈ 29.8 to 932 µM) in each case.
Regarding `Cc1ccc(-n2nnnc2SCCCCCCCOc2ccc3c(c2)CC[C@@H]2[C@@H]3CC[C@]3(C)C(=O)CC[C@@H]23)cc1`, the MIC (in the assay with Mycobacterium avium; with Mycobacterium kansasii [2]; in assay [3]; against Mycobacterium kansasii [4]) was at least 500 µg/mL each time.
For the compound `C[C@]12CC[C@@H]3c4ccc(OCCCCCCCSc5nnnn5-c5ccccc5)cc4CC[C@H]3[C@@H]1CCC2=O`, the minimum inhibitory concentration (MIC) (against Mycobacterium avium; against Mycobacterium kansasii [2]; in [3]; with Mycobacterium kansasii [4]) was at least 500 µg/mL each time.
On to `C[C@]12CC[C@@H]3c4ccc(OCCCCCCCSc5nnnn5-c5ccc(Cl)cc5)cc4CC[C@H]3[C@@H]1CCC2=O`, for which the MIC (in the assay with Mycobacterium avium; in the assay with Mycobacterium kansasii [2]; in assay [3]; in the assay on Mycobacterium kansasii [4]) was at least 500 µg/mL each time.
In the case of `C[C@]12CC[C@@H]3c4ccc(OCCCCCCCSc5nnnn5-c5ccc(Cl)c(Cl)c5)cc4CC[C@H]3[C@@H]1CCC2=O`, the MIC (in the assay with Mycobacterium avium; with Mycobacterium kansasii [2]; in assay [3]; in the assay with Mycobacterium kansasii [4]) was at least 500 µg/mL each time.
In the case of `Clc1ccc(-n2nnnc2SCc2ccccc2)cc1`, the MIC (against Mycobacterium avium; against Mycobacterium kansasii [2]; in assay [3]; against Mycobacterium kansasii [4]) was 8 to 250 µg/mL (≈ 26.4 to 826 µM) in each case.
For `Cc1ccc(-n2nnnc2S)cc1`, the minimum inhibitory concentration (MIC) (with Mycobacterium avium; against Mycobacterium kansasii [2]; in assay [3]; in the assay with Mycobacterium kansasii [4]) was 250 to 500 µg/mL (≈ 1300 to 2600 µM) each time.
Consider `Cc1ccc(-n2nnnc2SCc2ccccc2)cc1`, for which the MIC (against Mycobacterium avium; in the assay with Mycobacterium kansasii [2]; in assay [3]; with Mycobacterium kansasii [4]) was 8 to 250 µg/mL (≈ 28.3 to 885 µM) throughout.
Regarding `COc1cc(-c2nnnn2S(=O)(=O)c2ccccc2)ccc1OCC(O)(Cn1cncn1)c1ccc(Cl)cc1Cl` (stereo not given), the IC50 in the assay on CHO-K1 is above 150 µg/mL. The compound also came in with an MIC in assay [5] of 25 µg/mL (≈ 41.5 µM).
Compound `COc1ccc(S(=O)(=O)n2nnnc2-c2ccc(OCC(O)(Cn3cncn3)c3ccc(Cl)cc3Cl)c(OC)c2)cc1` (stereo not given) yielded an IC50 in the assay with CHO-K1 above 150 µg/mL. In assay [5], this compound registered a minimal inhibitory concentration (MIC) of 1.56 to 12.5 µg/mL (≈ 2.47 to 19.8 µM).
Turning to `O=C(Cn1nnnc1-c1ccccc1)NN1C(=O)C(Cl)C1c1ccc(Br)cc1` (stereo not given), the minimum inhibitory concentration (MIC) in assay [6] is above 6.25 µg/mL.
On to `COc1cc(-c2nnnn2S(=O)(=O)c2ccc(F)cc2)ccc1OCC(O)(Cn1cncn1)c1ccc(Cl)cc1Cl` (stereo not given), for which the IC50 with CHO-K1 was above 150 µg/mL. This compound also returned an MIC in assay [5] of 1.56 to 12.5 µg/mL (≈ 2.51 to 20.1 µM).
With `COc1cc(-c2nnnn2S(=O)(=O)c2ccc(OC(F)(F)F)cc2)ccc1OCC(O)(Cn1cncn1)c1ccc(F)cc1F` (stereo not given), the 50% inhibitory concentration (IC50) in the assay on CHO-K1 was above 150 µg/mL.
Compound `O=C(Cn1nnnc1-c1ccccc1)NN1C(=O)C(Cl)C1c1ccccc1` (stereo not given) had an MIC in assay [6] above 6.25 µg/mL.
In the case of `COc1ccc(C(=O)Nc2ccc(-c3nnn(CC(=O)Nc4cc(C)on4)n3)cc2)cc1`, the figures for the IC50 (in assay [1]; against Falcipain 2; in the assay on Plasmodium falciparum) were 6.67 to 43.9 µM, 6.67 to 43.9 µM and above 10 µM, respectively.
For `COc1ccc(NC(=O)Cn2nnc(-c3ccccc3NS(=O)(=O)c3ccc(NC(C)=O)cc3)n2)cc1`, the IC50 was 6.67 to 43.9 µM in assay [1], 6.67 to 43.9 µM against Falcipain 2 and above 10 µM in the assay with Plasmodium falciparum.
